What all share (assay): NCI anticancer screen, dose series, 48 h
Test [1] relates to 786-0.
In test [2] the test system is A498.
Test [3] relates to A549.
Test [4] relates to COLO 205.
Test [5] concerns HT-29.
Test [6] deals with Hs-578T.
The test system of test [7] is K562.
The subject of test [8] is KM12.
The subject of test [9] is M14.
The subject of test [10] is MOLT-4.
Test [11] concerns NCI-H226.
The subject of test [12] is NCI-H460.
The subject of test [13] is NCI/ADR-RES.
The subject of test [14] is OVCAR-8.
In test [15] the test system is RPMI-8226.
The test system of test [16] is SF-295.
Test [17] has as its system SK-OV-3.
Test [18] relates to SN12C.
Test [19] relates to SW-620.
In test [20] the test system is SF-539.

Structures can show the parent of a compound that is named as a salt.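 Protocol summary: plate cells (96-well), add compound at 5 concentrations, incubate 48 h, interpolate endpoints linearly. GI50 = concentration required for 50% inhibition of growth.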 Activity calls are given as the source filed them. Cut-off read from the data, not from the text of the source: active = GI50 up to about 1.1 µM and inactive = higher.

`N#CC12C(=O)N3C(=NC(c4ccccc4)NC3c3ccccc3)C1(C#N)C(c1ccccc1)NC1=C2CCCC1` (stereo not given): the GI50 in test [1], in [2], in test [3], in test [4], in [5] and in test [6] was > 100 µM (inactive) throughout. The GI50 in [7], in [8], in test [9], in [10], in test [11] and in test [12] was > 100 µM (inactive) throughout. In addition, the GI50 in [13], in test [14], in test [15], in test [16], in [17] and in test [18] was > 100 µM (inactive) in each case. For the same compound, in test [19], the GI50 was > 100 µM (inactive).

For the compound `O=C(O)C(Cc1c[nH]cn1)N1C(=O)c2ccccc2C1=O` (stereo not given), the GI50 in test [1], in test [2], in test [3], in test [4], in [5] and in test [6] was > 100 µM (inactive) each time. The GI50 in test [7], in test [8], in [9], in test [10], in [11] and in test [12] was > 100 µM (inactive) in each case. The GI50 in test [13] was > 100 µM (inactive); in test [14], > 100 µM (inactive); in test [15], > 100 µM (inactive); in [16], 30 µM (inactive); in test [18] it was > 100 µM (inactive); in test [19], > 100 µM (inactive).

Consider `CN(C)CCC=C1c2ccccc2C=Cc2ccccc21` [CYCLOBENZAPRINE HYDROCHLORIDE], for which the GI50 in [1] is 16.1 µM (inactive); in [2], 15.8 µM (inactive); in test [3], 20 µM (inactive); in test [4] it was 14.4 µM (inactive); in test [5], 5.25 µM (inactive); in test [6] it was 18.8 µM (inactive). In addition, the GI50 in test [7] is 18.5 µM (inactive); in test [8] it was 18.5 µM (inactive); in test [9], 15.8 µM (inactive); in test [10], 16.8 µM (inactive); in test [11], 0.0374 µM (active); in test [12], 15.4 µM (inactive). For the same compound, the GI50 in test [13] was 16.3 µM (inactive); in test [14], 16 µM (inactive); in [15], 18.3 µM (inactive); in test [16] it was 17.2 µM (inactive); in test [17], 16.1 µM (inactive); in test [18], 16.9 µM (inactive). Moreover, the GI50 in test [19] is 17.1 µM (inactive).

With `CSc1nc(NC2CC2)c2c(n1)Sc1nc3ccccc3n1N=C2`, the GI50 in [1] is 6.08 µM (inactive); in test [2] it was 10.5 µM (inactive); in test [3], 18.7 µM (inactive); in test [4], 41.9 µM (inactive); in [5], 26.3 µM (inactive); in [6] it was 0.9 µM (active). In addition, the GI50 was > 100 µM (inactive) in [7]; 56.2 µM (inactive) in test [8]; 39.5 µM (inactive) in test [9]; > 100 µM (inactive) in [10]; 16.8 µM (inactive) in test [11]; 25.1 µM (inactive) in test [12]. Further, the GI50 is 20.3 µM (inactive) in test [13]; 10.1 µM (inactive) in test [14]; 12.2 µM (inactive) in test [20]; 26.5 µM (inactive) in test [17]; 8.55 µM (inactive) in test [18]; 26.6 µM (inactive) in [19].

`Cc1ccc(S(=O)(=O)N/N=C2/C(=O)Nc3c(Cl)cc(Cl)cc32)cc1`: the GI50 was > 100 µM (inactive) in test [1]; 55.5 µM (inactive) in test [2]; 67.5 µM (inactive) in [3]; 68.7 µM (inactive) in test [4]; 39.1 µM (inactive) in test [5]; 76.6 µM (inactive) in test [6]. Also, the GI50 in test [7] is 72.1 µM (inactive); in test [8], > 100 µM (inactive); in test [9], 73.5 µM (inactive); in test [10], 38.5 µM (inactive); in test [11] it was > 100 µM (inactive); in [12], 44.2 µM (inactive). Besides, the GI50 in test [13] was 40 µM (inactive); in [14] it was 38.8 µM (inactive); in test [16], 35.8 µM (inactive); in test [20], 66.1 µM (inactive); in test [17], > 100 µM (inactive); in [18], > 100 µM (inactive). Also, the GI50 in test [19] is 99.1 µM (inactive).

As for `COCO[C@@H]1C[C@H]2C(=O)Nc3ccccc3C(=O)N2C1`, the GI50 in [1] was > 100 µM (inactive); in test [2], 38.5 µM (inactive); in test [3], > 100 µM (inactive); in [4], 29.3 µM (inactive); in [5], 85.3 µM (inactive); in test [6], 58.6 µM (inactive). Also, the GI50 in test [8] was > 100 µM (inactive); in [9] it was > 100 µM (inactive); in test [11] it was 3.91 µM (inactive); in [13] it was 79.1 µM (inactive); in test [14], > 100 µM (inactive); in test [16] it was 30.8 µM (inactive). For the same compound, the GI50 was 38.7 µM (inactive) in [20], > 100 µM (inactive) in [17], 88.1 µM (inactive) in [18] and 50.7 µM (inactive) in test [19].

In the case of `CCCCN/N=N/c1cn(C2OC(CO)C(O)C2O)c(=O)[nH]c1=O` (stereo not given), the GI50 in test [1], in test [2], in test [3], in test [4], in test [5] and in test [6] was > 100 µM (inactive) each time. Further, the GI50 in [8], in test [9], in [10], in [11], in [12] and in [13] was > 100 µM (inactive) each time. For the same compound, the GI50 in test [14], in test [16], in [20], in test [17], in test [18] and in test [19] was > 100 µM (inactive) throughout.

For the compound `CCOC(=O)c1cc(=O)c2cccc3c2n1CCS3`, the GI50 is > 100 µM (inactive) in test [1]; 83.8 µM (inactive) in test [2]; > 100 µM (inactive) in test [3]; > 100 µM (inactive) in test [4]; > 100 µM (inactive) in test [5]; > 100 µM (inactive) in test [6]. In addition, the GI50 was > 100 µM (inactive) in test [8]; > 100 µM (inactive) in test [9]; > 100 µM (inactive) in [10]; > 100 µM (inactive) in [11]; 83.9 µM (inactive) in [12]; > 100 µM (inactive) in test [13]. The GI50 in test [14], in test [16], in test [20], in [17], in [18] and in [19] was > 100 µM (inactive) each time.

Values taken from ChEMBL document CHEMBL1201862, “PubChem BioAssay data set” (2004).
